The values that follow come from ChEMBL document CHEMBL1121864, “Diterpenoid sweeteners. Synthesis and sensory evaluation of stevioside analogues nondegradable to steviol” (J Med Chem, 1981).

A value given as a limit tells only on which side of the number the result lay.

This data set is described as follows: Acute toxicity in mice after oral administration. The settings on record: mouse, in vivo.

With `C=C1C[C@@]23CC[C@H]4[C@@](C)(CCC[C@@]4(C)C(=O)O[C@@H]4O[C@H](CO)[C@@H](O)[C@H](O)[C@H]4O)[C@@H]2CC[C@]1(O[C@@H]1O[C@H](CO)[C@@H](O)[C@H](O)[C@H]1O[C@@H]1O[C@H](CO)[C@@H](O)[C@H](O)[C@H]1O)C3` [STEVIOSIDE], the LD50 (usually the dose at which mortality reaches 50%) is more than 8200 mg/kg. For the same molecule, the LD50 (read-out: LD50) was more than 15000 mg/kg.
